Test results from ChEMBL document CHEMBL1152934, “Quinazolindione derivatives as potent 5-HT3A receptor antagonists” (Bioorg Med Chem, 2009).

Target: Voltage-dependent T-type calcium channel subunit alpha-1G (Homo sapiens, UniProt O43497)
Experiment: Antagonist activity against T-type calcium channel alpha1G; call rule not given here
Format: functional

Chain of Voltage-dependent T-type calcium channel subunit alpha-1G (O43497 whole entry): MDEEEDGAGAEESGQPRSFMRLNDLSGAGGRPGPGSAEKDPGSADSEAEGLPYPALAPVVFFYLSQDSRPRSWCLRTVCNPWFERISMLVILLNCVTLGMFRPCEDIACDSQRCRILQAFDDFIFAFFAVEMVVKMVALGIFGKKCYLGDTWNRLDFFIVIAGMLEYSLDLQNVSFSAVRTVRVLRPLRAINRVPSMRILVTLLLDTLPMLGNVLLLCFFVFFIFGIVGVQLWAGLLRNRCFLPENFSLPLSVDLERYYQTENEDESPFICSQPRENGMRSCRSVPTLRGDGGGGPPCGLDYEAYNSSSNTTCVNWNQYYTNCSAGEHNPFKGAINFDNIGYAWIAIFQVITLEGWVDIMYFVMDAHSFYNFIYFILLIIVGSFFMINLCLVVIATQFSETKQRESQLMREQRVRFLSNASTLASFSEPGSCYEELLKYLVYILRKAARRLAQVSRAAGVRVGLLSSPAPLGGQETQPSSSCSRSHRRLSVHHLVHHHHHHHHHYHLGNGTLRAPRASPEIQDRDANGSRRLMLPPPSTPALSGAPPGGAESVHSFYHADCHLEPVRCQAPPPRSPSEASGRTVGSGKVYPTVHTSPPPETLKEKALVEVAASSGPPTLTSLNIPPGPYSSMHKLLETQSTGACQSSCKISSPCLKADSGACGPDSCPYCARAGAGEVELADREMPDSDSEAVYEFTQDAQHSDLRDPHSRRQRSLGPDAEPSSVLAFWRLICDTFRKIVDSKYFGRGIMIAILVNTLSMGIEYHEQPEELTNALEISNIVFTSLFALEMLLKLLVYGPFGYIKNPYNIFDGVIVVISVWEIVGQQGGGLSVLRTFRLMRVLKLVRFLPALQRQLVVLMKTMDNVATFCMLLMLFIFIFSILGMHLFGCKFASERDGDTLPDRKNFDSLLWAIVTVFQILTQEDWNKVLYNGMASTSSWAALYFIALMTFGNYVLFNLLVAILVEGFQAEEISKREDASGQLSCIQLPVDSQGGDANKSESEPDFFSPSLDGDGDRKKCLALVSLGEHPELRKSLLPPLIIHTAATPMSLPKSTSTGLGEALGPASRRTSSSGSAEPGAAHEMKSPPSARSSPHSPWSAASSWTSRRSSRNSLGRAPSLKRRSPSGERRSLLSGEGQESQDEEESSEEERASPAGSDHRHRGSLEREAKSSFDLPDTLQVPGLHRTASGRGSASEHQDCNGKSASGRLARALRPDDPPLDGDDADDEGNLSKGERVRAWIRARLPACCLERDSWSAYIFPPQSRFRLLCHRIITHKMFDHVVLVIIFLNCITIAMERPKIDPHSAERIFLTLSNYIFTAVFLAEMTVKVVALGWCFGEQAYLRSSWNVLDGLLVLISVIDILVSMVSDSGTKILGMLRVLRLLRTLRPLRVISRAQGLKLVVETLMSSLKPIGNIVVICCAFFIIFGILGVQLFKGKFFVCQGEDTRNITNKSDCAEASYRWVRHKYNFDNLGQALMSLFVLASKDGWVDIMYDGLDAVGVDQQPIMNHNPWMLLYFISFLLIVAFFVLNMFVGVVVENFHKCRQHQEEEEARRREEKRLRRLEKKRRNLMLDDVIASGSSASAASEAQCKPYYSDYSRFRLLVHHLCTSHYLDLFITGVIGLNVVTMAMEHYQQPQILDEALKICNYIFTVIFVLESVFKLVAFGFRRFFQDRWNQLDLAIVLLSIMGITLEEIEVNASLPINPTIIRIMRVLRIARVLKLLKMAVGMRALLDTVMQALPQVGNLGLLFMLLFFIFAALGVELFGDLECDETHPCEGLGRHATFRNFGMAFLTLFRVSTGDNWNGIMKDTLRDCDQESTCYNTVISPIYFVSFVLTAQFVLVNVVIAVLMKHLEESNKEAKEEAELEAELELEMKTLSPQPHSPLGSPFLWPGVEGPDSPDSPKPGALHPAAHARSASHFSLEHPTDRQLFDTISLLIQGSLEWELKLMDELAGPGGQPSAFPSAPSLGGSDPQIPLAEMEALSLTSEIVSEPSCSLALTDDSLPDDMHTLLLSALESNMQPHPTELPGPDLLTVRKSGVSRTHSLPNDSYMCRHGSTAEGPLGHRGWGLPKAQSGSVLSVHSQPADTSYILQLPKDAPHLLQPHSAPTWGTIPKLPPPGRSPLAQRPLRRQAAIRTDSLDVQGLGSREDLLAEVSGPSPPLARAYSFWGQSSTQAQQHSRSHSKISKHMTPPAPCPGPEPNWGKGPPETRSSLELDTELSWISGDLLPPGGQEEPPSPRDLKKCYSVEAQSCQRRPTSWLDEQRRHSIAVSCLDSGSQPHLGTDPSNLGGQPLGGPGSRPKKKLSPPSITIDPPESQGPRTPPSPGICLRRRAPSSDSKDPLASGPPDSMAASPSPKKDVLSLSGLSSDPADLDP

Structure (SMILES) | IC50
CCCn1c(=O)[nH]c2cc(C(=O)NCCN3CCCCC3)ccc2c1=O | Not Active
Cn1c(=O)[nH]c2cc(C(=O)NCCN3CCCCC3)ccc2c1=O | Not Active
COc1ccccc1Cn1c(=O)[nH]c2cc(C(=O)NCCN3CCCCC3)ccc2c1=O | Not Active
COc1ccc(-n2c(=O)[nH]c3cc(C(=O)NCCN4CCCCC4)ccc3c2=O)cc1 | Not Active
O=C(NCCN1CCCCC1)c1ccc2c(=O)n(C3CCCCC3)c(=O)[nH]c2c1 | Not Active
O=C(NCCN1CCOCC1)c1ccc2c(=O)n(Cc3ccc(F)cc3)c(=O)[nH]c2c1 | Not Active
CC1CCCCN1CCNC(=O)c1ccc2c(=O)n(Cc3ccc(Cl)cc3)c(=O)[nH]c2c1 (stereo not drawn) | Not Active
COc1cccc(Cn2c(=O)[nH]c3cc(C(=O)NCCN4CCCCC4)ccc3c2=O)c1 | Not Active
CC1CCCCN1CCCNC(=O)c1ccc2c(=O)n(Cc3ccc(Cl)cc3)c(=O)[nH]c2c1 (stereo not drawn) | Not Active
O=C(NCCN1CCCCC1)c1ccc2c(=O)n(-c3ccc(F)cc3)c(=O)[nH]c2c1 | Not Active
CC1CCCCN1CCCNC(=O)c1ccc2c(=O)n(C3CCCCC3)c(=O)[nH]c2c1 (stereo not drawn) | Not Active
O=C(NCCN1CCOCC1)c1ccc2c(=O)n(-c3ccc(F)cc3)c(=O)[nH]c2c1 | Not Active
O=C(NCCN1CCCCC1)c1ccc2c(=O)n(Cc3ccccc3F)c(=O)[nH]c2c1 | Not Active
O=C(NCCCN1CCOCC1)c1ccc2c(=O)n(Cc3ccc(Cl)cc3)c(=O)[nH]c2c1 | Not Active
O=C(NCCN1CCCCC1)c1ccc2c(=O)n(Cc3ccccc3Cl)c(=O)[nH]c2c1 | Not Active
CCC1CCCCN1CCCNC(=O)c1ccc2c(=O)n(Cc3ccc(Cl)cc3)c(=O)[nH]c2c1 (stereo not drawn) | Not Active
COc1ccc(Cn2c(=O)[nH]c3cc(C(=O)NCCN4CCCCC4)ccc3c2=O)cc1 | Not Active
O=C(NCCN1CCOCC1)c1ccc2c(=O)n(Cc3ccc(Cl)cc3)c(=O)[nH]c2c1 | Not Active
